From patent US9701672B2, “Dihydropyridinone MGAT2 inhibitors for use in the treatment of metabolic disorders” (BRISTOL-MYERS SQUIBB COMPANY, priority 2014, dated 2017)

Biological target: human MGAT-2 (Homo sapiens (Human), UniProt Q3SYC2)
Assay: MGAT LCMS assay (h-MGAT LCMS)
Format: biochemical
Conditions: human MGAT2 membranes expressed in Sf9 cells; 100 μM 2-oleoylglycerol, 15 μM oleoyl-coenzyme A
Experimental: The MGAT enzyme reactions were performed in Corning FALCON® 96-well polypropylene plates, in a total volume of 60 μL of 50 mM potassium phosphate buffer pH 7.4, containing a final concentration of 100 μM 2-oleoylglycerol, 15 μM oleoyl-coenzyme A and 0.0013 μg/μL human or mouse MGAT-2 or 0.0026 μg/μL rat recombinant MGAT-2 membranes expressed in Sf9 cells. Assay plates were run through a fully automated robotics system and shaken for 5 seconds every minute for a total 10 minutes. The reactions were then quenched with 120 μL of ice cold methanol containing 1 μg/mL 1,2-distearoyl-rac-glycerol as the internal standard. Plates were shaken for 2 minutes and spun down to remove protein precipitation. After the spin, samples were transferred to LC/MS compatible PCR plates. For LC/MS analysis, a ThermoFisher Surveyor pump, utilizing a Waters […]® C8, 50×2.1 mm column, was used for the chromatography of enzyme products. The buffer system consists of 0.1% formic acid in water with a mobile phase consisting 0.1% formic acid in methanol. The shallow gradient is 90-100% mobile phase in 0.2 min with a total run time of 2.3 min. The first 0.5 minutes of each injection was diverted to waste to eliminate the presence of phosphate buffer in the enzymatic reaction. The column was run at 0.6 mL/min and a temperature of 65° C. Mass spectrometry analysis of the samples was performed on a ThermoFisher Quantum Triple quad utilizing APCI (+) as the mode of ionization. Data was acquired in Single Ion Monitoring (SIM) mode analyzing Diolein=m/z 603.6 (PRODUCT) and 1,2-distearoyl-rac-glycerol (IS)=m/z 607.6. The ratio of Diolein to internal standard (Peak Area Ratio) is utilized to calculate IC50 values.
“NT” denotes “Not tested”.

Chain of human MGAT-2 (Q3SYC2 whole entry): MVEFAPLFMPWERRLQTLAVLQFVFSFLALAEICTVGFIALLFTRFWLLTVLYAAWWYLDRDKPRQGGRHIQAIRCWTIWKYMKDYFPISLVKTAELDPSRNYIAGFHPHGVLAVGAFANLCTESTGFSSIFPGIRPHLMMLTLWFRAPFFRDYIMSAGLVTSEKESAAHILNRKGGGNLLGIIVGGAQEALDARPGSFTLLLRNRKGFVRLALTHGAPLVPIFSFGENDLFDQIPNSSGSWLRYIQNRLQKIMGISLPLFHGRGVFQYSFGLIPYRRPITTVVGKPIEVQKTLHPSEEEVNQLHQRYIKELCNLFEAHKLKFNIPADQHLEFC

Row | IC50 [nM] | SMILES
1 | 3.2 | O=C1N[C@@](c2ccc(OCCCC(F)(F)F)cc2F)(C(F)(F)F)CC(c2ccn(CC3CC3)n2)=C1c1nnn[nH]1 [Example 52]
2 | 44 | O=C1N[C@@](c2ccc(OCCCC(F)(F)F)cc2F)(C(F)(F)F)CC(c2ccn(CC3CCC3)n2)=C1c1nnn[nH]1 [Example 53]
3 | 0.2 | O=C1N[C@@](c2ccc(OCCCC(F)(F)F)cc2Cl)(C(F)(F)F)CC(c2ccc(C3CC3)s2)=C1c1nnn[nH]1 [Example 56]
4 | 1.4 | COc1cc(OCCCC(F)(F)F)ccc1[C@]1(C(F)(F)F)CC(c2ccc(C3CC3)s2)=C(c2nnn[nH]2)C(=O)N1 [Example 57]
5 | 2.2 | CCc1ccc(C2=C(c3nnn[nH]3)C(=O)N[C@@](c3ccc(OCCCCCC(F)(F)F)cc3)(C(F)(F)F)C2)s1 [Example 58]
6 | 1.4 | O=C1N[C@@](c2ccc(OCCCC(F)(F)F)cc2F)(C(F)(F)F)CC(c2ncc(C3CC3)s2)=C1c1nnn[nH]1 [Example 59]
7 | 137 | O=C1N[C@@](c2ccc(OCCCCCC(F)(F)F)cc2)(C(F)(F)F)CC(c2nc3ccccc3s2)=C1c1nnn[nH]1 [Example 60]
8 | 120 | O=C1N[C@@](c2ccc(OCCCC(F)(F)F)cc2Cl)(C(F)(F)F)CC(c2ccn(C3CC3)n2)=C1c1nnn[nH]1 [Example 61]
9 | 2.1 | CCc1cnc(C2=C(c3nnn[nH]3)C(=O)N[C@@](c3ccc(OCCCC(F)(F)F)cc3F)(C(F)(F)F)C2)s1 [Example 62]
10 | 0.7 | O=C1N[C@@](c2ccc(OCCCCCC(F)(F)F)cc2Cl)(C(F)(F)F)CC(c2ncc(C3CC3)s2)=C1c1nnn[nH]1 [Example 63]
11 | 1.1 | O=C1N[C@@](c2ccc(OCCCC(F)(F)F)cc2Cl)(C(F)(F)F)CC(c2ncc(C3CC3)s2)=C1c1nnn[nH]1 [Example 64]
12 | 8.8 | CCc1ccc(C2=C(c3nnn[nH]3)C(=O)N[C@@](c3ccc(Br)cc3)(C(F)(F)F)C2)s1 [Example 65]
13 | 0.5 | CCc1cnc(C2=C(c3nnn[nH]3)C(=O)N[C@@](c3ccc(OCCCCCC(F)(F)F)cc3F)(C(F)(F)F)C2)s1 [Example 66]
14 | 32.3 | COc1ccc(C2=C(C#N)C(=O)N[C@@](c3ccc(OCCCCC(F)(F)F)cc3)(C(F)(F)F)C2)cn1 [Example 70, (S)-6-Methoxy-2′-oxo-6′-(trifluoromethyl)-6′-(4-((5,5,5-trifluoropentyl)oxy)phenyl)-1′,2′,5′,6′-tetrahydro-[3,4′-bipyridine]-3′-carbonitrile]
15 | 31.5 | Cc1ccc(C2=C(C#N)C(=O)N[C@@](c3ccc(OCCCCCC(F)(F)F)cc3)(C(F)(F)F)C2)s1 [Example 71, (S)-4-(5-Methylthiophen-2-yl)-2-oxo-6-(4-((6,6,6-trifluorohexyl)oxy)phenyl)-6-(trifluoromethyl)-1,2,5,6-tetrahydropyridine-3-carbonitrile]
16 | 10.3 | COc1ccc(C2=C(C#N)C(=O)N[C@@](c3ccc(OCCCCCC(F)(F)F)cc3)(C(F)(F)F)C2)cn1 [Example 72, (S)-6-Methoxy-2′-oxo-6′-(4-((6,6,6-trifluorohexyl)oxy)phenyl)-6′-(trifluoromethyl)-1′,2′,5′,6′-tetrahydro-[3,4′-bipyridine]-3′-carbonitrile]
17 | 1.5 | CCc1ccc(C2=C(NC(=O)CS(C)(=O)=O)C(=O)N[C@@](c3ccc(OCCCCCC(F)(F)F)cc3)(C(F)(F)F)C2)s1 [Example 75, (S)—N-(4-(5-Ethylthiophen-2-yl)-2-oxo-6-(4-((6,6,6-trifluorohexyl)oxy)phenyl)-6-(trifluoromethyl)-1,2,5,6-tetrahydropyridin-3-yl)-2-(methylsulfonyl)acetamide]
18 | 522 | Cc1cnn(C2=C(C#N)C(=O)N[C@@](c3ccc(OCCCC(F)(F)F)cc3)(C(F)(F)F)C2)c1 [Example 77]

Row | SMILES | IC50 [nM]
19 | Cc1ccc(C2=C(C#N)C(=O)N[C@@](c3ccc(OCCCC(F)(F)F)cc3)(C(F)(F)F)C2)s1 [Example 67, (S)-4-(5-Methylthiophen-2-yl)-2-oxo-6-(4-(4,4,4-trifluorobutoxy)phenyl)-6-(trifluoromethyl)-1,2,5,6-tetrahydropyridine-3-carbonitrile] | 97.6
20 | N#CC1=C(c2ccc(Cl)s2)C[C@](c2ccc(OCCCC(F)(F)F)cc2)(C(F)(F)F)NC1=O [Example 68, (S)-4-(5-Chlorothiophen-2-yl)-2-oxo-6-(4-(4,4,4-trifluorobutoxy)phenyl)-6-(trifluoromethyl)-1,2,5,6-tetrahydropyridine-3-carbonitrile] | 30.2
21 | Cc1csc(C2=C(C#N)C(=O)N[C@@](c3ccc(OCCCC(F)(F)F)cc3)(C(F)(F)F)C2)c1 [Example 69, (S)-4-(4-Methylthiophen-2-yl)-2-oxo-6-(4-(4,4,4-trifluorobutoxy)phenyl)-6-(trifluoromethyl)-1,2,5,6-tetrahydropyridine-3-carbonitrile] | 148
22 | N#CC1=C(c2ccc(C3CC3)s2)C[C@](c2ccc(OCCCC(F)(F)F)cc2)(C(F)(F)F)NC1=O [Example 74, (S)-4-(5-Cyclopropylthiophen-2-yl)-2-oxo-6-(4-(4,4,4-trifluorobutoxy)phenyl)-6-(trifluoromethyl)-1,2,5,6-tetrahydropyridine-3-carbonitrile] | 15
23 | COc1ccc(NC(=O)C2=C(c3ccn(C4CC4)n3)C[C@](c3ccc(OCCCC(F)(F)F)cc3)(C(F)(F)F)NC2=O)cc1 [Example 76, (S)-4-(1-Cyclopropyl-1H-pyrazol-3-yl)-N-(4-methoxyphenyl)-2-oxo-6-(4-(4,4,4-trifluorobutoxy)phenyl)-6-(trifluoromethyl)-1,2,5,6-tetrahydropyridine-3-carboxamide] | 4.2
